The record followed here is patent US12331045B2, “Substituted phenyl oxazolone compounds” (Bristol-Myers Squibb Company, priority 2023, dated 2025).

Type in all cases: cell-based
Assay [1] deals with T1, IKZF1 Ikaros (Homo sapiens, UniProt Q13422+Q96SW2). Briefly: Human CD8+ T Cell Reprogramming Assay (method headed Human CD8+ T Cell Degradation Assay). Also on record: HELIOS-PE-Cy7, EOS-PE, IKAROS-PECF594, AIOLOS-AF647; endogenous in cells; host or cells: healthy-donor human PBMC; CD8+ T cells analysed by flow cytometry. Conditions: CD8+ T cells in human PBMC, 24 hours; for IKZF1 Ikaros Maximum Observed Degradation: flow cytometry; for DC50: 50% reduction vs DMSO. Here is the method: (§1) Cryopreserved healthy donor human peripheral blood mononuclear cells (PBMC; obtained from Stemcell Technologies or Blood Works Northwest) from two healthy donors were thawed and seeded at 500,000 cells/well of 96-well round bottom plates in RPMI 1640 media (Gibco) supplemented with 10% FBS, Pen/Strep (Gibco), MEM-NEAA (Gibco), and sodium pyruvate (Gibco). Cells were treated with titrated doses of compound for 24 hours at 37° C., 5% CO2 before analyzing by flow cytometry.
T1 sequence (Q13422 whole entry): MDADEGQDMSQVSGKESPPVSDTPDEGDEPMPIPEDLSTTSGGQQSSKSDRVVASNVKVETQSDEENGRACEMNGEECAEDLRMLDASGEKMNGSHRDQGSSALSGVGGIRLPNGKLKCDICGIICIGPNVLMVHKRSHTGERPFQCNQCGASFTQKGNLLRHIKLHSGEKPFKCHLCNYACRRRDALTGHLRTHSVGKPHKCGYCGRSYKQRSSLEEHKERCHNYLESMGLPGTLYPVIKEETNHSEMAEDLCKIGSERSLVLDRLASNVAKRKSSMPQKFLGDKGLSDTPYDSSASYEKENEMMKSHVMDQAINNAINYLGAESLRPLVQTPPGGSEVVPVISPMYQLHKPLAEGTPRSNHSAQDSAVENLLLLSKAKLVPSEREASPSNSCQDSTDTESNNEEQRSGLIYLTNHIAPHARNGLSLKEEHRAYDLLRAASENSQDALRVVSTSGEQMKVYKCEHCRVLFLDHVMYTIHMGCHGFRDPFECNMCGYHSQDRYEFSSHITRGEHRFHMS
T1 sequence (Q96SW2 whole entry): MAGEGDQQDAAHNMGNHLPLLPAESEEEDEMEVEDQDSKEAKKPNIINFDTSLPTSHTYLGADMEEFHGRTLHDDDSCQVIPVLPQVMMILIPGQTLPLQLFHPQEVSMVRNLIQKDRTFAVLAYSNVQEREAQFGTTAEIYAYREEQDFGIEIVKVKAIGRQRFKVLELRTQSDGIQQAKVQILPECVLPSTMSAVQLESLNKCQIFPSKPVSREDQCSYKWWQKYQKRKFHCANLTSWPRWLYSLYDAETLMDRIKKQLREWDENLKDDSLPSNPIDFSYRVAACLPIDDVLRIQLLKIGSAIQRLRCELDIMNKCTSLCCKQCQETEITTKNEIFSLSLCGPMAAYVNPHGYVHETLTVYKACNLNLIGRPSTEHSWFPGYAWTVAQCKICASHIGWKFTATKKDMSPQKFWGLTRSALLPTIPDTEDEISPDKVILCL
T1 sequence (Q16531 whole entry partner): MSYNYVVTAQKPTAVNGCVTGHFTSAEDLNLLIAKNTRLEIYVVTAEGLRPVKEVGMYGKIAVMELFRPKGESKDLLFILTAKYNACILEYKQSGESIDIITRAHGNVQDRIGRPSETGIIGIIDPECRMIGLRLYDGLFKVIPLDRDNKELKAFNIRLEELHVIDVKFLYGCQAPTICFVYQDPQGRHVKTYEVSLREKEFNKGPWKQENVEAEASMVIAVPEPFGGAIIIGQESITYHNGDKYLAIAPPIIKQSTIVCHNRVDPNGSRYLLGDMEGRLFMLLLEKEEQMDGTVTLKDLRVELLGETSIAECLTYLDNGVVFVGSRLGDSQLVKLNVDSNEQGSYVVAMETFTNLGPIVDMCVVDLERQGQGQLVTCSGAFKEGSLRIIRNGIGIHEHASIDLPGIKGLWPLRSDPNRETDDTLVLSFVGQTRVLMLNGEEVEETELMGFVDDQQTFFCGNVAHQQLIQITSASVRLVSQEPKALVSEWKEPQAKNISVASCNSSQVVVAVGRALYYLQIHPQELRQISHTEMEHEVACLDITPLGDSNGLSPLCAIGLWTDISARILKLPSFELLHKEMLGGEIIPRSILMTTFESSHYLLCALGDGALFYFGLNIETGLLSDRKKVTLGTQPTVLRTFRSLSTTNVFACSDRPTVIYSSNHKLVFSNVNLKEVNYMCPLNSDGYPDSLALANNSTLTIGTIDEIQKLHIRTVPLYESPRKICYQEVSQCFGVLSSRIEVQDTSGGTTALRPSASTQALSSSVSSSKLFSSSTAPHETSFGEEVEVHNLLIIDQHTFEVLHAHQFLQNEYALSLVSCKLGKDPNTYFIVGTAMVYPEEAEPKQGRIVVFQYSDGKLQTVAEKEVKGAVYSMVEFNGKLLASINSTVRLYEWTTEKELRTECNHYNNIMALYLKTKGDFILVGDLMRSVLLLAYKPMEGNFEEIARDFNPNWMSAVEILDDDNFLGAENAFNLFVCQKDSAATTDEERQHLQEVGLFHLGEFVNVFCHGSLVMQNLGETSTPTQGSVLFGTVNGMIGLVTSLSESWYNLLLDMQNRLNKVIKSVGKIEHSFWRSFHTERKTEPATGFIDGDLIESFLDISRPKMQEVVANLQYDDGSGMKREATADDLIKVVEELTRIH
(§2) For flow cytometry staining, cells were washed twice with flow cytometry staining buffer (Thermo Fisher) and incubated in Human Tru-stain Fc block (Biolegend) for 10 minutes before adding eFluor780 viability dye (Thermo Fisher) and surface marker antibody cocktail containing LD-eFluor780, CD3-BUV-395, CD4-BUV805, CD8-FITC, CD25-BV605, FoxP3-BV421, HELIOS-PE-Cy7, EOS-PE, IKAROS-PECF594, AIOLOS-AF647 for 30 minutes at 4° C. Cells were then fixed and permeabilized by incubation with permeabilization buffer (eBioscience FoxP3 buffer set 00-5523-00) for 30 minutes at 4° C., as per the kit manufacturer's instructions. Cells were washed twice with the Perm/Wash buffer suppled in the kit as per the manufacturer's instructions and incubated overnight at 4° C. with an intracellular antibody cocktail comprised of antibodies specific for the transcription factors shown in Table C. Cells were washed twice with Perm/Wash buffer and resuspended in flow cytometry staining buffer (Thermo Fisher) prior to acquisition. Sample acquisition and analysis was performed using a BD LSRFortessa (BD Biosciences) flow cytometer. Single stain controls for each fluorochrome were prepared using UltraComp eBead Compensation Beads (Thermo Fisher). Data were analyzed using FlowJo version 10 and GraphPad Prism Software.
A general note: A flow cytometer gives signals particle by particle.

For assay [2], the target named is T2, IKZF3 Aiolos (Homo sapiens, UniProt Q96SW2+Q9UKT9). The assay is described as above. Also on record: HELIOS-PE-Cy7, EOS-PE, IKAROS-PECF594, AIOLOS-AF647; endogenous in cells; host or cells: healthy-donor human PBMC; CD8+ T cells analysed by flow cytometry. Conditions: CD8+ T cells in human PBMC, 24 hours; for IKZF3 Aiolos Maximum Observed Degradation: flow cytometry; for DC50: 50% reduction vs DMSO. Here is the method: as §1, §2
T2 sequence (Q9UKT9 whole entry): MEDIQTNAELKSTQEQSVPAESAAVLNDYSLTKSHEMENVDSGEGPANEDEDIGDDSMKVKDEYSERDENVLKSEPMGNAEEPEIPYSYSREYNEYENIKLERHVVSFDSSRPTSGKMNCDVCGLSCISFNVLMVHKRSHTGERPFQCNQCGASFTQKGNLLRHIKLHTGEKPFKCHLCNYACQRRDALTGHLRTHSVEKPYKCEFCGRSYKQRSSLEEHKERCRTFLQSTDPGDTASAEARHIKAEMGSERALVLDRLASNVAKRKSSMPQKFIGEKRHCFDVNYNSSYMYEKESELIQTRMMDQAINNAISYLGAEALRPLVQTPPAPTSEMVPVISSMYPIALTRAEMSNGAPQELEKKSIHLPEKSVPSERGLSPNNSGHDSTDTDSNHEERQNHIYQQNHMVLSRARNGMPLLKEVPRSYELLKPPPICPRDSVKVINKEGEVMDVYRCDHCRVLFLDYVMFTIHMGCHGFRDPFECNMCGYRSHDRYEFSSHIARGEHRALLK
T2 sequence (Q96SW2 whole entry): as the sequence (Q96SW2 whole entry) above
T2 sequence (Q16531 whole entry partner): as the sequence (Q16531 whole entry partner) above

Assay [3] has as its target T3, IKZF2 Helios (Homo sapiens, UniProt Q96SW2+Q9UKS7). Briefly: Human T Regulatory Cells Degradation Assay. Also on record: endogenous in cells; host or cells: primary human CD4+CD127lowCD25+ Treg cells sorted from healthy-donor leukopaks. Conditions: 20 hours. Here is the method:
Cryopreserved human T regulatory cells were thawed in RPMI+10% FBS+20 ng/mL IL-2. After being spun at 1200 rpm for 5 mins, the cells were resuspended in RPMI+10% FBS+20 ng/mL and rested at 37° C. with 5% CO2 for 3 hours. The cells were then plated at 40,000 cells/well in 40 μL RPMI+10% FBS+20 ng/mL human IL-2 in a 384 well cell culture plate prior to using acoustic dispensing technology (ECHO 555) for adding compounds of interest. Cell cultures were incubated for 20 hours at 37° C., and 5% CO2. In order to facilitate analysis, cell cultures were spun down at 1200 rpm for 5 minutes and the supernatant was discarded using an EL406 plate washer. After washing three times with 70 μL PBS, cell pellets were resuspended in 50 μL of near IR viability staining solution (Life Technologies, Cat #L34975) and incubated for 30 minutes on ice protected from light. Cells were washed three times with […] PBS+0.5% BSA using an EL406 plate washer. After shaking the plate to dislodge the cell pellet, cells were resuspended in 50 μL of Fixation Buffer (eBioScience FoxP3 buffer set 00-5523-00) for 60 minutes at room temperature. […] Stained cells were resuspended in 30 μL of flow cytometry staining buffer (PBS+0.5% BSA) and analyzed using an Intellicyt Ique Plus flow cytometer.

Assay [4] concerns the target T2, IKZF3 Aiolos. Briefly: Jurkat Cellular Degradation Assay. Conditions: Jurkat cells, 72 h; for IKZF3 Aiolos max % deg. observed: flow cytometry, 100% = complete degradation. Here is the method:
(§3) Jurkat cells were plated at 80,000 cells/well in 40 μL RPMI+10% FBS in a 384-well cell culture plate prior to using acoustic dispensing technology for adding a compound of interest. Cell cultures were incubated for 72 h at 37° C., and 5% CO2. In order to facilitate analysis, cell cultures were spun down at 200 rpm for 5 min and the supernatant was discarded. After shaking the plate to dislodge the cell pellet, cells were resuspended in 50 qL of Fixation Buffer (eBioscience FoxP3 buffer set 00-5523-00) for 60 min at room temperature. After centrifuging and discarding the supernatant, cells were permeabilized with 50 μL of Permeabilization buffer (eBioscience FoxP3 buffer set 00-5523-00) for 10 min at room temperature. Following permeabilization, cells were spun down and the supernatant was replaced with 20 μL fluorescently labelled antibodies against Helios, Ikaros and Aiolos or corresponding Isotype controls in 1-Penneabilization buffer (Ikaros-Alexa488 [Biolegend, Cat #368408, 1:50], Helios-PE [CST, Cat #29360, 1:50], Aiolos-Alexa647 [Biolegend, Cat #371106 Biolegend, 1:25]) and staining reactions were incubated for 1 h at room temperature while protected from light. Subsequently, 30 μL of 1× Permeabilization buffer was added prior to centrifuging the cells and discarding the supernatant. Stained cells were resuspended in 25 μL of flow cytometry staining buffer [PBS+0.2% bovine serum albumin (BSA)] and analyzed using an Intellicyt Ique Plus flow cytometer.

For assay [5], the target named is T1, IKZF1 Ikaros. Briefly: Jurkat Cellular Degradation Assay. Also on record: HELIOS-PE-Cy7, EOS-PE, IKAROS-PECF594, AIOLOS-AF647; endogenous in cells. Conditions: Jurkat cells, 72 h; for IKZF1 Ikaros max % deg. observed: flow cytometry, 100% = complete degradation. Here is the method:
as §3

In assay [6] the target is T3, IKZF2 Helios. Briefly: Jurkat Cellular Degradation Assay. Also on record: endogenous in cells. Conditions: Jurkat cells, 72 h; concentration reducing protein by 50% vs DMSO. How it is done: as §3, with “Subsequently, 30 μL of 1× Permeabilization buffer was added prior to centrifuging the cells and discarding the supernatant.” left out
Another assay has as its target T4, IKZF4 Eos (Homo sapiens, UniProt Q96SW2+Q9H2S9).
T4 construct: endogenous in cells; host or cells: primary human CD4+CD127lowCD25+ Treg cells sorted from healthy-donor leukopaks
Briefly: Human T Regulatory Cells Reprogramming Assay. Conditions: sorted human Treg cells, 12-13 days; 50% reduction vs DMSO. Here is the method: (§4) Human CD4^+ T cells were isolated from fresh healthy leukopaks (Stemcell Technologies) using the RosetteSep Human CD4^+ T cell enrichment cocktail (Stemcell Technologies) and Ficoll density gradient centrifugation. Leukopaks were diluted with an equal volume of phosphate-buffered saline (PBS [Gibco]) supplemented with 2% fetal bovine serum (FBS, VWR Lifescience) and incubated with RosetteSep Human CD4^+ T cell enrichment cocktail for 20 minutes before layering on Ficoll-Paque Plus solution (GE Health Care). The cell-rich interface layer was harvested and washed twice with PBS supplemented with 2% FBS. Regulatory T cells were then isolated manually using the EasySep Human CD4^+CD127^lowCD25^+ Regulatory T cell isolation kit (Stemcell Technologies) according to the manufacturer's instructions. Cells were rested overnight in Roswell Park Memorial Institute (RPMI) 1640 media (Gibco) supplemented with 10% FBS, Pen/Strep (Gibco), MEM-NEAA (Gibco), and sodium pyruvate (Gibco) in a humidified incubator (37° C., 5% CO2). […]
(§5) For flow cytometry staining, cells were washed twice with flow cytometry staining buffer (Thermo Fisher) and incubated in Human Tru-stain Fc block (Biolegend) for 10 minutes before adding eFluor780 viability dye (Thermo Fisher) and surface marker antibody cocktail for 30 minutes at 4° C. […] Data were analyzed using FlowJo version 10 and GraphPad Prism Software.

Assay [7] has as its target T3, IKZF2 Helios. Briefly: Human T Regulatory Cells Reprogramming Assay. Also on record: endogenous in cells; host or cells: primary human CD4+CD127lowCD25+ Treg cells sorted from healthy-donor leukopaks. Conditions: sorted human Treg cells, 12-13 days; 50% reduction vs DMSO. Here is the method:
as §4, §5

Assay [8] addresses T1, IKZF1 Ikaros. Briefly: Human T Regulatory Cells Degradation Assay. Also on record: HELIOS-PE-Cy7, EOS-PE, IKAROS-PECF594, AIOLOS-AF647; endogenous in cells. Conditions: 20 hours.
Setting [9] is: concentration reducing protein by 50% vs DMSO.

T3 sequence (Q9UKS7 whole entry): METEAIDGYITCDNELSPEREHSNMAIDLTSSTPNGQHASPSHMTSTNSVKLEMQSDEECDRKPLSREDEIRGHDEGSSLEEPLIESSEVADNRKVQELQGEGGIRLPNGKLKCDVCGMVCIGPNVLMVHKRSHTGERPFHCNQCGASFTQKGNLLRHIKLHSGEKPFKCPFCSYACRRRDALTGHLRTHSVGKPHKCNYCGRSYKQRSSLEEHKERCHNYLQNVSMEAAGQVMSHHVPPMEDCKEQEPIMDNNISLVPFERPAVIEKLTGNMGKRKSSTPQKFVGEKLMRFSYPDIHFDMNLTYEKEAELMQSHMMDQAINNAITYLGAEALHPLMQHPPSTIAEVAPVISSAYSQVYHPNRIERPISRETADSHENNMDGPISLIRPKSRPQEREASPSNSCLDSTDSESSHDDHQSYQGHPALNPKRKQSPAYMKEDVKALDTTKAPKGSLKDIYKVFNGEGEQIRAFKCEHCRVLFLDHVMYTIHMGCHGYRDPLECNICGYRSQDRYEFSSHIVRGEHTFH
T3 sequence (Q96SW2 whole entry): as the sequence (Q96SW2 whole entry) above
T3 sequence (Q16531 whole entry partner): as the sequence (Q16531 whole entry partner) above
T4 sequence (Q9H2S9 whole entry): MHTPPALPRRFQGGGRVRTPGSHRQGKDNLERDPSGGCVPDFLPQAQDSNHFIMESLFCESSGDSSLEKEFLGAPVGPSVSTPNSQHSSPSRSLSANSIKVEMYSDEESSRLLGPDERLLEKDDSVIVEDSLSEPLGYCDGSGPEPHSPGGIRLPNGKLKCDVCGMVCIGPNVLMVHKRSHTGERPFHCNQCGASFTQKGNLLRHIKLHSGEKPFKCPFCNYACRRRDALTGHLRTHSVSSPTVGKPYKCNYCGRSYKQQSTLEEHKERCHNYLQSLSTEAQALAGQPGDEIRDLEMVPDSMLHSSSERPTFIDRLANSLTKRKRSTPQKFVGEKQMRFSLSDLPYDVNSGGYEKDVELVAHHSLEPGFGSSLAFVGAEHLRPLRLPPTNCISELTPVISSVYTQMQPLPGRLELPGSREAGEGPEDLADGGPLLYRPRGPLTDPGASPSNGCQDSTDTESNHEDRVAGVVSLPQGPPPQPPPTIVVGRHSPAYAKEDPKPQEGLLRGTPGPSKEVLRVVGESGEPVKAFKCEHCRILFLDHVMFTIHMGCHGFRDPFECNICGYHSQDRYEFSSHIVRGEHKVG
T4 sequence (Q96SW2 whole entry): as the sequence (Q96SW2 whole entry) above
T4 sequence (Q16531 whole entry partner): as the sequence (Q16531 whole entry partner) above

With `Cc1cc(-c2ccc(-c3cn(C4CCC(=O)NC4=O)c(=O)o3)c(F)c2)nc(N)c1C` (stereo not drawn) [Example 1, 3-(5-(4-(6-Amino-4,5-dimethylpyridin-2-yl)-2-fluorophenyl)-2-oxooxazol-3(2H)-yl) piperidine-2,6-dione], at IKZF1 Ikaros [1], the “IKZF1 Ikaros Maximum Observed Degradation” value is given as 74%. The DC50 at IKZF1 Ikaros [1] was 102 nM; on IKZF3 Aiolos [2], 19 nM; on IKZF2 Helios [3] (50% reduction vs DMSO), 5.2 nM; at IKZF3 Aiolos [4] (setting [9]) it was 4920 nM; at IKZF1 Ikaros [5] (setting [9]) it was 1080 nM; on IKZF2 Helios [6], 13.6 nM. Moreover, the DC50 turned out to be 1.5 nM on IKZF4 Eos, 85 nM at IKZF2 Helios [7] and 5470 nM at IKZF1 Ikaros [8] (50% reduction vs DMSO). Further, the “IKZF3 Aiolos Maximum Observed Degradation” value on IKZF3 Aiolos [2] is on record as 77%. At IKZF2 Helios [3] (flow cytometry), the “IKZF2 Helios max % deg. observed” value came to 99%. Also, the “IKZF3 Aiolos max % deg. observed” value on IKZF3 Aiolos [4] turned out to be 54%. Besides, the “IKZF1 Ikaros max % deg. observed” value was 66% on IKZF1 Ikaros [5] and 55% at IKZF1 Ikaros [8] (flow cytometry).
As to `O=C1CCC(n2cc(-c3ccccc3)oc2=O)C(=O)N1` (stereo not drawn) [Comparative Compound A, 3-(2-oxo-5-phenyloxazol-3(2H)-yl)piperidine-2,6-dione, reference compound], the “IKZF3 Aiolos max % deg. observed” value at IKZF3 Aiolos [4] was 46%. Moreover, at IKZF1 Ikaros [5], the “IKZF1 Ikaros max % deg. observed” value was 57%.
In the case of `O=C1CCC(n2cc(-c3ccc(Br)cc3F)oc2=O)C(=O)N1` (stereo not drawn) [Comparative Compound B, 3-(5-(4-bromo-2-fluorophenyl)-2-oxooxazol-3(2H)-yl)piperidine-2,6-dione, reference compound], the “IKZF3 Aiolos max % deg. observed” value at IKZF3 Aiolos [4] was 15%.
`[2H]C1([2H])C(=O)NC(=O)C([2H])(n2cc(-c3ccc(-c4cc(C)c(C)c(N)n4)cc3F)oc2=O)C1([2H])[2H]` (stereo not drawn) [Example 2, 3-(5-(4-(6-amino-4,5-dimethylpyridin-2-yl)-2-fluorophenyl)-2-oxooxazol-3(2H)-yl) piperidine-2,6-dione-3,4,4,5,5-D5]: on IKZF1 Ikaros [1], the “IKZF1 Ikaros Maximum Observed Degradation” value was 66%. In addition, the DC50 came out at 139 nM at IKZF1 Ikaros [1], 26 nM on IKZF3 Aiolos [2], 0.63 nM on IKZF4 Eos and 42 nM on IKZF2 Helios [7]. Moreover, at IKZF3 Aiolos [2], the “IKZF3 Aiolos Maximum Observed Degradation” value is recorded as 71%.
